Measured values taken from US20200079765A1, “SUBSTITUTED HETEROARYL PYRROLONES AND SALTS THEREOF AND USE THEREOF AS HERBICIDAL ACTIVE SUBSTANCES” (Bayer CropScience Aktiengesellschaft, priority 2016, published 2020).

Experiments:
Type in all cases: in vivo
[1] = system: Abutilon theophrasti; test: Post-emergence herbicidal action (Experimental Part 1, A); conditions: about 3 weeks after treatment, 100% = plants have died, 0% = like control plants
Description: (§1) Seeds of monocotyledonous and dicotyledonous weeds and crop plants were placed in sandy loam in plastic or wood-fiber pots, covered with soil and cultivated in a greenhouse under controlled growth conditions. 2 to 3 weeks after sowing, the test plants were treated at the one-leaf stage. The compounds of the invention, formulated in the form of wettable powders (WP) or as emulsion concentrates (EC), were then sprayed onto the green parts of the plants as aqueous suspension or emulsion with addition of 0.5% additive at a water application rate of 600 l/ha (converted). After the test plants had been kept in the greenhouse under optimum growth conditions for about 3 weeks, the activity of the preparations was rated visually in comparison to untreated controls. For example, 100% activity=the plants have died, 0% activity=like control plants. Tables A1 to A14 below show the effects of selected compounds of the general formula (I) according to Tables I.1 to I.116 on various harmful plants and an application rate corresponding to 1280 g/ha or 320 g/ha, which were obtained by the experimental procedure mentioned above.

[2] = system: Alopecurus myosuroides; test: as above; conditions: about 3 weeks after treatment, 100% = plants have died, 0% = like control plants
Description: as §1

[3] = system: Amaranthus retroflexus; test: as above; conditions: about 3 weeks after treatment, 100% = plants have died, 0% = like control plants
Description: as §1

[4] = system: Avena fatua; test: as above; conditions: rated visually after about 3 weeks
Description: as §1

[5] = system: Echinochloa crus-galli; test: as above; conditions: about 3 weeks after treatment, 100% = plants have died, 0% = like control plants
Description: as §1

[6] = system: Hordeum murinum; test: as above; conditions: application rate 1280 g/ha, rated visually after about 3 weeks
Description: as §1

[7] = system: Ipomoea purpurea; test: as above; conditions: application rate 1280 g/ha, rated visually after about 3 weeks
Description: as §1

[8] = system: Lolium rigidum; test: as above; conditions: application rate 1280 g/ha, rated visually after about 3 weeks
Description: as §1

[9] = system: Matricaria inodora; test: as above; conditions: rated visually after about 3 weeks
Description: as §1

[10] = system: Polygonum convolvulus; test: as above; conditions: rated visually after about 3 weeks
Description: as §1

[11] = system: Setaria viridis; test: as above; conditions: about 3 weeks after treatment, 100% = plants have died, 0% = like control plants
Description: as §1

[12] = system: Stellaria media; test: as above; conditions: rated visually after about 3 weeks
Description: as §1

[13] = system: Veronica persica; test: as above; conditions: application rate 1280 g/ha, about 3 weeks after treatment, 100% = plants have died, 0% = like control plants
Description: as §1

[14] = system: Viola tricolor; test: as above; conditions: rated visually after about 3 weeks
Description: as §1

[15] = system: Abutilon theophrasti; test: Pre-emergence herbicidal action (Experimental Part 1, B); conditions: scored visually after about 3 weeks
Source text: (§2) Seeds of monocotyledonous and dicotyledonous weed plants and crop plants were placed in plastic or organic planting pots and covered with soil. The compounds of the invention, formulated in the form of wettable powders (WP) or as emulsion concentrates (EC), were then applied onto the surface of the covering soil as aqueous suspension or emulsion with addition of 0.5% additive at a water application rate of 600 l/ha (converted). After the treatment, the pots were placed in a greenhouse and kept under good growth conditions for the test plants. After about 3 weeks, the effect of the preparations was scored visually in comparison with untreated controls as percentages. For example, 100% activity=the plants have died, 0% activity=like control plants. Tables B1 to B14 below show the effects of selected compounds of the general formula (I) according to Tables I.1 to I.116 on various harmful plants and an application rate corresponding to 1280 g/ha or 320 g/ha, which were obtained by the experimental procedure mentioned above.

[16] = system: Alopecurus myosuroides; test: as above; conditions: scored visually after about 3 weeks
Source text: as §2

[17] = system: Amaranthus retroflexus; test: as above; conditions: scored visually after about 3 weeks
Source text: as §2

[18] = system: Avena fatua; test: as above; conditions: scored visually after about 3 weeks
Source text: as §2

[19] = system: Echinochloa crus-galli; test: as above; conditions: application rate 1280 g/ha, scored visually after about 3 weeks
Source text: as §2

[20] = system: Hordeum murinum; test: as above; conditions: scored visually after about 3 weeks
Source text: as §2

[21] = system: Ipomoea purpurea; test: as above; conditions: application rate 1280 g/ha, scored visually after about 3 weeks
Source text: as §2

[22] = system: Lolium rigidum; test: as above; conditions: application rate 1280 g/ha, scored visually after about 3 weeks
Source text: as §2

[23] = system: Matricaria inodora; test: as above; conditions: scored visually after about 3 weeks
Source text: as §2

[24] = system: Polygonum convolvulus; test: as above; conditions: scored visually after about 3 weeks
Source text: as §2

[25] = system: Setaria viridis; test: as above; conditions: scored visually after about 3 weeks
Source text: as §2

[26] = system: Stellaria media; test: as above; conditions: scored visually after about 3 weeks
Source text: as §2

[27] = system: Veronica persica; test: as above; conditions: application rate 1280 g/ha, scored visually after about 3 weeks
Source text: as §2

[28] = system: Viola tricolor; test: as above; conditions: scored visually after about 3 weeks
Source text: as §2

CC(=O)OC1C(C)=CC(=O)N1c1cc(C(C)(C)C)on1 (stereo not drawn) [I.3-162]
herbicidal activity on Abutilon theophrasti (visual rating vs untreated controls) ([1]; application rate 320 g/ha): 100%
herbicidal activity on Abutilon theophrasti (visual rating vs untreated controls) ([1]; application rate 1280 g/ha): 100%
herbicidal activity on Alopecurus myosuroides (visual rating vs untreated controls) ([2]; application rate 320 g/ha): 100%
herbicidal activity on Alopecurus myosuroides (visual rating vs untreated controls) ([2]; application rate 1280 g/ha): 100%
herbicidal activity on Amaranthus retroflexus (visual rating vs untreated controls) ([3]; application rate 320 g/ha): 90%
herbicidal activity on Amaranthus retroflexus (visual rating vs untreated controls) ([3]; application rate 1280 g/ha): 100%
Avena fatua, herbicidal activity ([4]; application rate 320 g/ha): 90%
Avena fatua, herbicidal activity ([4]; application rate 1280 g/ha): 90%
herbicidal activity on Echinochloa crus-galli (visual rating vs untreated controls) ([5]; application rate 320 g/ha): 90%
herbicidal activity on Echinochloa crus-galli (visual rating vs untreated controls) ([5]; application rate 1280 g/ha): 100%
Hordeum murinum, herbicidal activity [6]: 100%
Ipomoea purpurea, herbicidal activity [7]: 90%
Lolium rigidum, herbicidal activity [8]: 90%
Matricaria inodora, herbicidal activity ([9]; application rate 320 g/ha): 100%
Matricaria inodora, herbicidal activity ([9]; application rate 1280 g/ha): 100%
Polygonum convolvulus, herbicidal activity ([10]; application rate 320 g/ha): 100%
Polygonum convolvulus, herbicidal activity ([10]; application rate 1280 g/ha): 100%
herbicidal activity on Setaria viridis (visual rating vs untreated controls) ([11]; application rate 320 g/ha): 100%
herbicidal activity on Setaria viridis (visual rating vs untreated controls) ([11]; application rate 1280 g/ha): 100%
Stellaria media, herbicidal activity ([12]; application rate 320 g/ha): 100%
Stellaria media, herbicidal activity ([12]; application rate 1280 g/ha): 100%
herbicidal activity on Veronica persica (visual rating vs untreated controls) [13]: 100%
Viola tricolor, herbicidal activity ([14]; application rate 320 g/ha): 100%
Viola tricolor, herbicidal activity ([14]; application rate 1280 g/ha): 100%
Abutilon theophrasti, herbicidal activity ([15]; application rate 320 g/ha): 100%
Abutilon theophrasti, herbicidal activity ([15]; application rate 1280 g/ha): 100%
Alopecurus myosuroides, herbicidal activity ([16]; application rate 320 g/ha): 90%
Alopecurus myosuroides, herbicidal activity ([16]; application rate 1280 g/ha): 90%
Amaranthus retroflexus, herbicidal activity ([17]; application rate 320 g/ha): 100%
Amaranthus retroflexus, herbicidal activity ([17]; application rate 1280 g/ha): 100%
Avena fatua, herbicidal activity ([18]; application rate 320 g/ha): 90%
Avena fatua, herbicidal activity ([18]; application rate 1280 g/ha): 90%
Echinochloa crus-galli, herbicidal activity [19]: 100%
Hordeum murinum, herbicidal activity ([20]; application rate 320 g/ha): 90%
Hordeum murinum, herbicidal activity ([20]; application rate 1280 g/ha): 100%
Ipomoea purpurea, herbicidal activity [21]: 90%
Lolium rigidum, herbicidal activity [22]: 90%
Matricaria inodora, herbicidal activity ([23]; application rate 320 g/ha): 100%
Matricaria inodora, herbicidal activity ([23]; application rate 1280 g/ha): 100%
Polygonum convolvulus, herbicidal activity ([24]; application rate 320 g/ha): 100%
Polygonum convolvulus, herbicidal activity ([24]; application rate 1280 g/ha): 100%
Setaria viridis, herbicidal activity ([25]; application rate 320 g/ha): 100%
Setaria viridis, herbicidal activity ([25]; application rate 1280 g/ha): 100%
Stellaria media, herbicidal activity ([26]; application rate 320 g/ha): 90%
Stellaria media, herbicidal activity ([26]; application rate 1280 g/ha): 100%
Veronica persica, herbicidal activity [27]: 100%
Viola tricolor, herbicidal activity ([28]; application rate 320 g/ha): 100%
Viola tricolor, herbicidal activity ([28]; application rate 1280 g/ha): 100%
